# According to publication PMC10269926, “The LiaFSR-LiaX System Mediates Resistance of Enterococcus faecium to Peptide Antibiotics and to Aureocin A53- and Enterocin L50-Like Bacteriocins” (Microbiology Spectrum, 2023):
# Where two headings read alike, the source gives them in different places. Where no end group is shown, it is not given here.
# Columns and labels:
# [1] = test system: E. faecium MUT_140 (liaFSR deletion) and MUT_141 (liaFSR plus liaX deletion); assay: Susceptibility of deletion strains as a group (microtiter MIC50 or antibiotic strips); assay type: cell-based, Enterococcus faecium; settings: for Effect of the deletions on sensitivity (in words): both deletion strains MUT_140 and MUT_141 compared with WT; for Fold increase in sensitivity relative to WT: both deletion strains MUT_140 and MUT_141
# Method: (§1) The sensitivity of the mutants to AurA53- and EntL50-like bacteriocins, nisin, RAM, GRA, carbenicillin, and chlortetracycline was determined using microtiter plates with serial 2-fold dilutions of the antimicrobials, as described previously ([41]). The lowest concentration of the agent reducing visible bacterial growth by at least 50% was taken as the MIC (MIC50) value. The sensitivity to other antibiotics was determined using agar plates with antibiotic strips as described previously ([12]). The antibiotic concentration at the point where the inhibition zone intersected the strip was taken as the MIC value. The antibiotic susceptibilities of E. faecium LMGT 2783, MUT_130 to MUT_132, MUT_136 to MUT_139, and MUT_140 and MUT_141 were tested in ISO-BHI medium (Oxoid) supplemented with 5 μg/mL Em when appropriate, while those of E. faecium MUT_142 to MUT_149 were tested in CM17 medium supplemented with 5 μg/mL Em. To study the effects of NaCl and sodium dodecyl sulfate (SDS) on bacterial growth, saturated overnight cultures of E. faecium were used for inoculation at a dilution of 1:100 in BHI medium with serial dilutions of these compounds at concentrations of 0.5 to 10% (wt/vol) and 3.0 × 10^−2 to 2.5 × 10^−3% (wt/vol), respectively. Bacterial cultures were incubated at 37°C without shaking for 24 h in a Bioscreen turbidometric automated analyzer (Bioscreen C, Growth Curves Ltd., Finland) in Honeycomb 100-well plates (Oy Growth Curves Ab Ltd.). […] The assays were made at least in triplicate.
# [2] = test system: E. faecium MUT_146 (ΔliaFSR pGh:PptcB:liaSR); assay: MIC50, microtiter plates with serial 2-fold dilutions; assay type: cell-based, Enterococcus faecium; settings: microtiter 2-fold dilutions, at least 50% growth reduction, CM17 + 5 μg/mL Em, mean of three biological replicates
# Method: as §1
# [3] = test system: E. faecium MUT_149 (ΔliaFSR ΔliaX pGh:PptcB:liaR); assay: as above; assay type: cell-based, Enterococcus faecium; settings: microtiter 2-fold dilutions, at least 50% growth reduction, CM17 + 5 μg/mL Em, mean of three biological replicates
# Method: as §1
# [4] = test system: E. faecium LMGT 2783 (WT); assay: as above; assay type: cell-based, Enterococcus faecium; settings: lowest concentration reducing visible growth by at least 50%, ISO-BHI medium, mean of three biological replicates
# Method: as §1
# [5] = test system: E. faecium MUT_147 (ΔliaFSR ΔliaX pGhost9 empty vector); assay: as above; assay type: cell-based, Enterococcus faecium; settings: microtiter 2-fold dilutions, at least 50% growth reduction, CM17 + 5 μg/mL Em, mean of three biological replicates
# Method: as §1
# [6] = test system: E. faecium MUT_148 (ΔliaFSR ΔliaX pGh:PptcB:liaS); assay: as above; assay type: cell-based, Enterococcus faecium; settings: microtiter 2-fold dilutions, at least 50% growth reduction, CM17 + 5 μg/mL Em, mean of three biological replicates
# Method: as §1
# [7] = test system: E. faecium MUT_145 (ΔliaFSR pGh:PptcB:liaR); assay: as above; assay type: cell-based, Enterococcus faecium; settings: microtiter 2-fold dilutions, at least 50% growth reduction, CM17 + 5 μg/mL Em, mean of three biological replicates
# Method: as §1
# [8] = test system: E. faecium MUT_144 (ΔliaFSR pGh:PptcB:liaS); assay: as above; assay type: cell-based, Enterococcus faecium; settings: microtiter 2-fold dilutions, at least 50% growth reduction, CM17 + 5 μg/mL Em, mean of three biological replicates
# Method: as §1
# [9] = test system: E. faecium MUT_150 (ΔliaFSR ΔliaX pGh:PptcB:liaSR); assay: as above; assay type: cell-based, Enterococcus faecium; settings: microtiter 2-fold dilutions, at least 50% growth reduction, CM17 + 5 μg/mL Em, mean of three biological replicates
# Method: as §1
# [10] = test system: E. faecium MUT_143 (ΔliaFSR pGhost9 empty vector); assay: as above; assay type: cell-based, Enterococcus faecium; settings: microtiter 2-fold dilutions, at least 50% growth reduction, CM17 + 5 μg/mL Em, mean of three biological replicates
# Method: as §1
# [11] = test system: E. faecium MUT_146 (ΔliaFSR pGh:PptcB:liaSR); settings: antibiotic strips on agar, CM17 + 5 μg/mL Em, mean of three biological replicates
# Method: as §1
# [12] = test system: E. faecium MUT_149 (ΔliaFSR ΔliaX pGh:PptcB:liaR); settings: antibiotic strips on agar, CM17 + 5 μg/mL Em, mean of three biological replicates
# Method: as §1
# [13] = test system: E. faecium MUT_147 (ΔliaFSR ΔliaX pGhost9 empty vector); settings: antibiotic strips on agar, CM17 + 5 μg/mL Em, mean of three biological replicates
# Method: as §1
# [14] = test system: E. faecium MUT_148 (ΔliaFSR ΔliaX pGh:PptcB:liaS); settings: antibiotic strips on agar, CM17 + 5 μg/mL Em, mean of three biological replicates
# Method: as §1
# [15] = test system: E. faecium MUT_145 (ΔliaFSR pGh:PptcB:liaR); settings: antibiotic strips on agar, CM17 + 5 μg/mL Em, mean of three biological replicates
# Method: as §1
# [16] = test system: E. faecium MUT_144 (ΔliaFSR pGh:PptcB:liaS); settings: antibiotic strips on agar, CM17 + 5 μg/mL Em, mean of three biological replicates
# Method: as §1
# [17] = test system: E. faecium MUT_150 (ΔliaFSR ΔliaX pGh:PptcB:liaSR); settings: antibiotic strips on agar, CM17 + 5 μg/mL Em, mean of three biological replicates
# Method: as §1
# [18] = test system: E. faecium MUT_143 (ΔliaFSR pGhost9 empty vector); settings: antibiotic strips on agar, CM17 + 5 μg/mL Em, mean of three biological replicates
# Method: as §1
# [19] = test system: E. faecium LMGT 2783 (WT); assay: microbe, parasite or virus in culture
# Method: as §1
# [20] = test system: E. faecium LMGT 2783 and its spontaneous mutants; assay: Effect of NaCl and SDS on bacterial growth (Bioscreen); assay type: cell-based, Enterococcus faecium; settings: WT LMGT 2783 and all mutants, BHI, 37°C, 24 h, inoculum 1:100, lowest concentration (wt/vol) with at least 50% growth inhibition, at least triplicate
# Method: (§2) The sensitivity of the mutants to AurA53- and EntL50-like bacteriocins, nisin, RAM, GRA, carbenicillin, and chlortetracycline was determined using microtiter plates with serial 2-fold dilutions of the antimicrobials, as described previously ([41]). The lowest concentration of the agent reducing visible bacterial growth by at least 50% was taken as the MIC (MIC50) value. The sensitivity to other antibiotics was determined using agar plates with antibiotic strips as described previously ([12]). The antibiotic concentration at the point where the inhibition zone intersected the strip was taken as the MIC value. The antibiotic susceptibilities of E. faecium LMGT 2783, MUT_130 to MUT_132, MUT_136 to MUT_139, and MUT_140 and MUT_141 were tested in ISO-BHI medium (Oxoid) supplemented with 5 μg/mL Em when appropriate, while those of E. faecium MUT_142 to MUT_149 were tested in CM17 medium supplemented with 5 μg/mL Em. To study the effects of NaCl and sodium dodecyl sulfate (SDS) on bacterial growth, saturated overnight cultures of E. faecium were used for inoculation at a dilution of 1:100 in BHI medium with serial dilutions of these compounds at concentrations of 0.5 to 10% (wt/vol) and 3.0 × 10^−2 to 2.5 × 10^−3% (wt/vol), respectively. […]
# [21] = test system: E. faecium MUT_132; assay: Effect of SDS on bacterial growth (Bioscreen); assay type: cell-based, Enterococcus faecium
# Method: as §2
# [22] = test system: spontaneous E. faecium BHT-B-resistant mutants
# Method: Spontaneous resistant mutants were obtained by growing E. faecium LMGT 2783 in the presence of the bacteriocin as described previously ([41]). […] The stability of changes in BHT-B sensitivity was determined by continuously subculturing mutants in BHI broth without bacteriocin. Subcultures were formed at 24-h intervals, and sensitivity to BHT-B was validated after 1, 5, and 10 passages with simultaneous control of culture purity.
# as §1
# [23] = LMGT 2783, WT, agar plates with antibiotic strips, point where inhibition zone intersects strip, ISO-BHI medium, mean of three biological replicates
# [24] = four mutants MUT_132, MUT_136, MUT_137, MUT_138, span over the mutants
Compound,Effect of the deletions on sensitivity (in words) [1],MIC50 [2] [mg/L],MIC50 [3] [mg/L],MIC50 [4] [mg/L],MIC50 [5] [mg/L],MIC50 [6] [mg/L],MIC50 [7] [mg/L],MIC50 [8] [mg/L],MIC50 [9] [mg/L],MIC50 [10] [mg/L],also measured
ramoplanin,unaffected,0.3,0.6,0.4,0.3,0.3,0.3,0.3,0.6,0.3,–
bacitracin,–,–,–,–,–,–,–,–,–,–,"MIC [11]: 16 mg/L; MIC [12]: 16 mg/L; MIC [13]: 16 mg/L; MIC [14]: 16 mg/L; MIC [15]: 24 mg/L; MIC [16]: 24 mg/L; MIC [17]: 24 mg/L; MIC [18]: 24 mg/L; MIC [19, 23]: 32 mg/L"
"CCCCCCCCCCCCOS(=O)(=O)[O-].[Na+] [SDS, sodium dodecyl sulfate]",–,–,–,–,–,–,–,–,–,–,"MIC50 [20]: 0.01%; MIC50 ([21]; MUT_132, BHI, 37°C, 24 h, Bioscreen C, lowest concentration (wt/vol) with at least 50% growth inhibition, at least triplicate): 0.005%; Fold increase in susceptibility ([21]; MUT_132 compared with the other strains): 2 fold"
weissellicin M [WelM],unaffected,25,50,6.3,6.3,6.3,25,6.3,50,6.3,–
[Cl-].[Na+] [NaCl],–,–,–,–,–,–,–,–,–,–,MIC50 [20]: 6%
"CCCCCCCCCC(=O)N[C@@H](Cc1c[nH]c2ccccc12)C(=O)N[C@H](CC(N)=O)C(=O)N[C@@H](CC(=O)O)C(=O)N[C@@H]1C(=O)NCC(=O)N[C@@H](CCCN)C(=O)N[C@@H](CC(=O)O)C(=O)N[C@H](C)C(=O)N[C@@H](CC(=O)O)C(=O)NCC(=O)N[C@H](CO)C(=O)N[C@@H]([C@H](C)CC(=O)O)C(=O)N[C@@H](CC(=O)c2ccccc2N)C(=O)O[C@@H]1C [DAP, daptomycin]",–,–,–,–,–,–,–,–,–,–,"Fold increase in sensitivity relative to WT [1]: 48 fold; DAP MIC of the BHT-B-resistant mutants ([22]; BHT-B-resistant mutants obtained, antibiotic strips): ≤ 8 mg/L; MIC [11]: 3 mg/L; MIC [12]: 12 mg/L; MIC [13]: 0.38 mg/L; MIC [14]: 0.38 mg/L; MIC [15]: 6 mg/L; MIC [16]: 0.38 mg/L; MIC [17]: 8 mg/L; MIC [18]: 0.38 mg/L; MIC [19, 23]: 3 mg/L"
gramicidin,unaffected,0.047,0.047,0.006,0.006,0.006,0.047,0.006,0.047,0.006,–
"CNC(C)C1CCC(N)C(OC2C(N)CC(N)C(OC3OCC(C)(O)C(NC)C3O)C2O)O1 (stereo not shown) [GEN, gentamicin]",unaffected,–,–,–,–,–,–,–,–,–,Fold-lower sensitivity than that of WT E. faecium ([22]; {}): 2-8 fold; MIC ([19]; Enterococcus faecium): 4 mg/L
enterocin L50 [EntL50],–,1.6,3.2,1.6,0.4,0.4,1.6,0.4,3.2,0.4,–
"nisin (ITSISLCTPGCKTGALMGCNMKTATCHCSIHVSK; not fully specified (some residues, bridges); cysteine pairing not given here; also: lantibiotic; UniProt P13068 24-57, looked up) [lantibiotic bacteriocin, ≥900 IU/mg, Glentham Life Sciences]",–,16,16,125,8,8,16,8,16,8,"Fold increase in sensitivity relative to WT [1]: 16 fold; Fold-lower sensitivity than that of WT E. faecium [22, 24]: no more than 4 fold"
"NC[C@H]1O[C@H](O[C@H]2[C@H](O)[C@@H](O[C@H]3O[C@H](CO)[C@@H](O)[C@H](N)[C@H]3O)[C@H](N)C[C@@H]2N)[C@H](O)[C@@H](O)[C@@H]1O [KAN, kanamycin]",unaffected,–,–,–,–,–,–,–,–,–,"MIC [11]: 64 mg/L; MIC [12]: 128 mg/L; MIC [13]: 32 mg/L; MIC [14]: 32 mg/L; MIC [15]: 64 mg/L; MIC [16]: 32 mg/L; MIC [17]: 128 mg/L; MIC [18]: 32 mg/L; MIC [19, 23]: 32 mg/L"
salivaricin C [SalC],–,50,50,25,12.5,12.5,50,12.5,50,12.5,"Fold-lower sensitivity than that of WT E. faecium [22, 24]: no more than 4 fold"
enterocin 7 [Ent7],–,1.6,1.6,1.6,0.4,0.4,1.6,0.4,1.6,0.4,–
